In brackets after ≈: the same amount, converted by molar mass. Entries after “also recorded” stand apart in the source; their conditions may differ.
Key:
[1] = DPPH assay (free-radical scavenging); type: biochemical; conditions: for DPPH free-radical scavenging: amount of antioxidant (in mg) needed to inhibit 1 mmol of DPPH; for antioxidative action (DPPH test), in words: comparison with vitamin C; for AE (×10^−3): anti-free-radical efficiency from EC50 and TEC50; for TEC50: reaction time necessary to achieve EC50
Procedure: In the presence of a free-radical scavenger, the electron is paired, the absorption disappears, and the decoloration proceeds stoichiometrically taking into account the electrons taken up. The absorbance is measured in a photometer, The anti-free-radical property of the substance to be tested is determined by measuring the concentration at which 50% of the 2,2-diphenyl-1-picrylhydrazyl employed has reacted with the free-radical scavenger. This concentration is expressed as EC50, a value which can be considered to be a property of the substance under the given measurement conditions. […] The EC50 value here is a measure of the capacity of the respective compound to scavenge free radicals. The lower the EC50 value, the higher the capacity to scavenge free radicals. […] A further important aspect for the action of the antioxidants is the time in which this EC50 value is reached. This time, measured in minutes, gives the TEC50 value, which allows a conclusion to be drawn on the rate at which these antioxidants scavenge free radicals. The anti-free-radical efficiency (AE) (described in C. Sanchez-Moreno, J. A. Larrauri and F. Saura-Calixto in J. Sci. […] Aliquots of this solution are mixed with various concentrations of the compound to be tested. […] The lower this value, the higher the corresponding antioxidant activity. The reaction time necessary to achieve this value is indicated in the value TEC50 (in minutes). The anti-free-radical efficiency (AE) is obtained from this in accordance with the following relationship: [formula] A higher AE value here indicates a higher activity against free radicals.

[2] = Lipid assay (ABAP-induced oxidation of linoleic acid in SDS micelles); type: biochemical; conditions: for Standardised to tocopherol (relative antioxidative efficiency, RAE): % inhibition standardised to tocopherol; for AE/20 min: absorbance change at 236 nm, Reference 0.4567; for % inhibition: inhibition of linoleic acid oxidation versus reference; for Lipid test: comparative experiment, standardised to tocopherol
Procedure: ABAP, which is water-soluble per se, is dispersed in SDS micelles. Linoleic acid (cis,cis-9,12-octadecadienoic acid) is likewise dispersed in SDS micelles. The free radicals cause the oxidation of linoleic acid to the isomer having conjugated double bonds. The formation of the conjugated double bond can be determined through the increase in the absorbance at 236 nm. The ability of the antioxidant to inhibit the rate of formation is determined relative to the tocopherol standard (in accordance with: Pryor, W. A., Cornicelli, […]., & Wu, M. (1993) A rapid screening test to determine the antioxidant potencies of natural and synthetic antioxidants. J Org Chem, 58, 3521-3532).

[3] = Time dependence of the antioxidative activity (DPPH test after storage); conditions: 1 mol % solution in EtOH:H2O 1:1, storage for 90 days at 40° C.
[4] = Rancimat assay (oxidation stability of soya oil); conditions: for Protection factor: 0.1% by weight in 4 g of soya oil at 120° and 15 l of air/h
Source text: The Rancimat method for determination of the oxidation stability of fats and oils is known from the literature (Läubli M. W., Bruttel P. A.: “Determination of the oxidation stability of fats and oils—comparison between the active oxygen method (AOCS Cd 12-57) and the Rancimat method”, Fat. Sci. Technol. 90; 56-58 (1988); or Metrohm “Application Bulletin” Metrohm, No. 232/1 d, “Determination of the antioxidant activity by the Rancimat method”; handbook: “Rancimat 679”, Metrohm, instrument for the determination of oxidation and thermal stability, use instructions 8.679.1001, Metrohm AG, CH-9100 Herisau (Switzerland)).

[5] = Hypoxanthine-xanthine oxidase test (superoxide scavenging, NBT reduction); type: biochemical; conditions: value at which 50% of the original superoxide free-radical anion concentration is still present
Procedure: Superoxide Free-Radical Anion Scavenging Efficiency of ASG I (Hypoxanthine-Xanthine Oxidase Test) Reaction of fresh xanthine oxidase with hypoxanthine in the presence of EDTA in aqueous solution gives superoxide free-radical anions. The free-radical anions are determined spectrophotometrically via the reduction of nitroblue tetrazolium (NBT) to nitroblue diformazan. The reduction is evident from the […] in the absorption band at 560 nm. […] The IC50 is the value at which 50% of the original superoxide free-radical anion concentration is still present. The lower this value, the higher the corresponding antioxidant activity.

[6] = TEAC assay (ABTS radical cation decolorisation); type: biochemical; conditions: comparative experiment with starting substances
Procedure: This free-radical cation has absorption maxima at 645 nm, 734 nm and 815 nm. The addition of an antioxidant to the ABTS free-radical cation results in reduction to ABTS. The magnitude of this conversion depends on the activity and concentration of the antioxidant and on the duration of the reaction. The reduction is evident from the decrease in absorbance, and the percentage of reduced ABTS is determined as a function of concentration and time and calculated relative to the reactivity of trolox (TEAC). […] This method can be used for the determination of antioxidants which are soluble in water or organic solvents (according to: Re, […]., Yang, M., & Rice, E. C. (1999) Antioxidant activity applying an improved ABTS radical cation decolorisation assay. Free Radical Biology and Medicine, 26, 1231-1237). The absorbance values measured after six minutes are used. The percentage of reduced ABTS is plotted against the concentration of the active ingredient (ASG I from Example 1 or trolox), and the slope of the lines is determined. In order to determine the TEAC value of ASG I, […].

[7] = target: tyrosinase; assay: Tyrosinase activity test with substrate L-tyrosine; type: biochemical; conditions: tyrosinase 10 units, L-tyrosine 4 mM, 37° C., 1 hour, OD 450 nm
Procedure: Tyrosinase is the key enzyme in the synthesis of melanin. Substances which inhibit tyrosinase activity are therefore suitable as skin-lightening active ingredients. The action is also investigated with L-tyrosine as substrate and compared with that of reference substances. The substances and tyrosinase (10 units) are pre-incubated on ice for 10 minutes; tyrosine is then added (final concentration 4 mM), and the plates are incubated at 37° C. for 1 hour. The optical density at each test point is measured at 450 nm against the corresponding control without enzyme.

[8] = Storage stability / hydrolysis of ASG I in EtOH:H2O solution; type: physicochemical
Procedure: The reducing action of each substance (DPPH test) as a function of time is investigated and expressed as the amount of substance in mg required to inhibit 1 mmol of the DPPH free radical (FIG. 1).
Under storage conditions (90 days at 40° C., 1 mol-percent solution in EtOH:H2O), only 50% of the initial concentration of ASG I is retained after 30 days.

[9] = test described in Gan, Seib 1998; cited from earlier work
[10] = no shift in absorbance of the complex induced by N3^−

For `O=C1O[C@H]([C@@H](O)COC(=O)c2ccc(O)c(O)c2)C(O)=C1O` [Substance 3, L-ascorbyl 6-O-(3,4-dihydroxy)benzoate], the DPPH free-radical scavenging [1] was 56 mg and the “antioxidative action (DPPH test), in words” value [1] was “great antioxidative action”.
With `Cc1c(C)c2c(c(C)c1O)CCC(C)(CCCC(C)CCCC(C)CCCC(C)C)O2` (centres unmarked) [Tocopherol, reference compound] the “Standardised to tocopherol (relative antioxidative efficiency, RAE)” value [2] was 1.00, the AE/20 min [2] was 0.0242 and the “% inhibition” value [2] was 94.7%. For the same compound, the “AE (×10^−3)” value [1] was 64.1 ×10^−3 and the TEC50 [1] was less than 60 min.
For `O=C1O[C@H]([C@@H](O)COC(=O)c2ccc(O)cc2)C(O)=C1O` [Substance 4, L-ascorbyl 6-O-(4-hydroxy)benzoate], the DPPH free-radical scavenging [1] was 185 mg and the “antioxidative action (DPPH test), in words” value [1] was “virtually the same reducing action as vitamin C”.
For `CCCCCCCCCCCCCCCC(=O)OC[C@H](O)[C@H]1OC(=O)C(O)=C1O` [Ascorbyl palmitate, 6-ascorbyl palmitate, reference compound], the DPPH free-radical scavenging [1] was 211 mg, the “antioxidative action after storage (DPPH test)” value [3] was “lose their antioxidative action” and the Protection factor ([4]; substance added pure) was 2.01.
With `COc1ccc(C(=O)OC[C@H](O)[C@H]2OC(=O)C(O)=C2O)cc1` [Substance 5, L-ascorbyl 6-O-(4-methoxy)benzoate] the DPPH free-radical scavenging [1] was 161 mg and the “antioxidative action (DPPH test), in words” value [1] was “virtually the same reducing action as vitamin C”.
Compound `O=C1O[C@H]([C@@H](O)COC(=O)c2cccc(O)c2)C(O)=C1O` [Substance 6, L-ascorbyl 6-O-(3-hydroxy)benzoate] has a DPPH free-radical scavenging [1] of 193 mg.
With `O=C1O[C@H]([C@@H](O)CO)C(O)=C1O` [Vitamin C, ascorbic acid, reference compound] the Lipid test [2] was 0.09, the DPPH free-radical scavenging [1] was 102 mg and the “AE (×10^−3)” value [1] was 61.72 ×10^−3. The TEC50 [1] was less than 60 min, the “antioxidative action after storage (DPPH test)” value [3] was “lose their antioxidative action” and the “IC50” value [5] was 25.5 mg/L (≈ 145 µM). The TEAC [6] was 1.
With `Cc1c(C)c2c(c(C)c1O)CCC(C)(CCCC(C)CCCC(C)CCCC(C)C)O2` (centres unmarked) [Vitamin E, reference compound] the Protection factor ([4]; substance added pure) was 0.94.
`O=C1O[C@H]([C@@H](O)CO)C([O-])=C1OP(=O)([O-])[O-].O=C1O[C@H]([C@@H](O)CO)C([O-])=C1OP(=O)([O-])[O-].[Mg+2].[Mg+2].[Mg+2]` [MAP, magnesium ascorbyl phosphate, reference compound] gave a DPPH free-radical scavenging [1] greater than 1000 mg and an IC50 [7] of 33.1 mM.
With `O=c1c(O)c(-c2ccc(O)c(O)c2)oc2cc(O)cc(O)c12` [3,5,7,3′,4′-Pentahydroxyflavone, reference compound] the “AE (×10^−3)” value [1] was 83 ×10^−3 and the TEC50 [1] was 120 min.
In the case of `COc1cc(C(=O)OC[C@H](O)[C@H]2OC(=O)C(O)=C2O)cc(OC)c1O` [Substance 2, L-ascorbyl 6-O-(4-hydroxy-3,5-dimethoxy)benzoate], the DPPH free-radical scavenging [1] is reported as 185 mg and the “antioxidative action (DPPH test), in words” value [1] is reported as “virtually the same reducing action as vitamin C”.
`O=C(O)c1cc(O)c(O)c(O)c1` [Gallic acid, reference compound] showed a Lipid test [2] of 0.37 and a TEAC [6] of 2.76.
In the case of `COc1cccc(C(=O)OC[C@H](O)[C@H]2OC(=O)C(O)=C2O)c1` [Substance 7, L-ascorbyl 6-O-(3-methoxy)benzoate], the DPPH free-radical scavenging [1] is reported as greater than 1000 mg.
In the case of `O=C1O[C@H]([C@@H](O)COC(=O)c2cc(O)c(O)c(O)c2)C(O)=C1O` [ASG I, L-ascorbyl 6-gallate], the initial concentration retained ([8]; 1 mol-percent solution in EtOH:H2O, 40° C., after 30 days) is reported as 50%, the “stability, in words” value ([8]; pure substance versus aqueous solution) is reported as “stable as the pure substance; also recorded: undergo hydrolysis in aqueous solution” and the “Standardised to tocopherol (relative antioxidative efficiency, RAE)” value [2] is reported as 0.69. For the same compound, the “activity relative to tocopherol” value ([2]; RAE expressed as percent of the activity of tocopherol) was 69%, the AE/20 min [2] was 0.1594 and the Lipid test [2] was 0.69. The “% inhibition” value [2] was 65.1%, the “effectiveness as antioxidant, in words” value [9] was “less effective than propyl gallate, but more effective than L-ascorbic acid or L-ascorbyl palmitate” and the DPPH free-radical scavenging [1] was 54 mg. The “AE (×10^−3)” value [1] was 69.4 ×10^−3, the “antioxidative action (DPPH test), in words” value [1] was “significantly greater antioxidative action than vitamin C or derivatives thereof” and the TEC50 [1] was 180 min. The “antioxidative action after storage (DPPH test)” value [3] was “retained”, the “IC50” value [5] was 9.3 mg/L (≈ 28.3 µM) and the Protection factor ([4]; dissolved in ethanol) was 3.07. For the same compound, the Protection factor ([4]; substance added pure) was 1.22, the “solubility in soya oil” value ([4]; pure substance in soya oil, Rancimat test) was “only dissolves partially” and the TEAC [6] was 3.65. For the same compound, the IC50 [7] was 0.109 mM and the “complex formation with Fe^3+” value [10] was “strong complex-forming properties”.
With `Cc1c(C)c2c(c(C)c1O)CCC(C)(C(=O)O)O2` (centres unmarked) [Trolox] the “IC50” value [5] was 388 mg/L (≈ 1550 µM).
